The target in test [1] is T1, human cloned 5-HT2A receptor, expressed in L929 cells (Homo sapiens, UniProt P28223).
T1 construct: expressed in transfected cells; host or cells: L929 cells
Briefly: In vitro radioligand binding affinity for 5-HT2A receptor ([125I]R91150). The protocol: (§1) The interaction of the compounds of Formula (I) with 5-HT2A and 5-HT2C receptors was assessed in in vitro radioligand binding experiments. In general, a low concentration of a radioligand with a high binding affinity for the receptor is incubated with a sample of a tissue preparation enriched in a particular receptor (1 to 5 mg tissue) in a buffered medium (0.2 to 5 ml). During the incubation, the radioligands bind to the receptor. When equilibrium of binding is reached, the receptor bound radioactivity is separated from the non-bound radioactivity, and the receptor bound activity is counted. The interaction of the test compounds with the receptors is assessed in competition binding experiments. Various concentrations of the test compound are added to the incubation mixture containing the tissue preparation and the radioligand. Binding of the radioligand will be inhibited by the test compound in proportion to its binding affinity and its concentration. The affinities of the compounds for the 5-HT2 receptors were measured by means of radioligand binding studies conducted with: (a) human cloned 5-HT2A receptor, expressed in L929 cells using [^125I]R91150 as radioligand and (b) human cloned 5-HT2C receptor, expressed in CHO cells using [^3H]mesulergine as radioligand.
(§2) The results are given in Table 3 below in terms of pIC50 values for the respective compounds.

Test [2] addresses T2, human Dopamine D2L receptor (Homo sapiens, UniProt P14416).
T2 construct: expressed in transfected cells; host or cells: CHO cells (membranes)
Nature of the test: In vitro binding affinity for human D2L receptor ([3H]Spiperone). The protocol:
Frozen membranes of human Dopamine D2L receptor-transfected CHO cells were thawed, briefly homogenized using an Ultra-Turrax T25 homogenizer and diluted in Tris-HCl assay buffer containing NaCl, CaCl2, MgCl2, KCl ([…] respectively, adjusted to pH 7.7 with HCl) to an appropriate protein concentration optimized for specific and non-specific binding. Radioligand [^3H]Spiperone (NEN, specific activity ˜70 Ci/mmol) was diluted in assay buffer at a concentration of 2 nmol/L. Prepared radioligand (50 μl), along with 50 μl of either the 10% DMSO control, Butaclamol (10^−6 mol/l final concentration), or compound of interest, was then incubated (30 min, 37° C.) with 400 μl of the prepared membrane solution. Membrane-bound activity was filtered through a Packard Filtermate harvester onto GF/B Unifilter plates and washed with ice-cold Tris-HCl buffer (50 mM; pH 7.7; 6×0.5 ml). Filters were allowed to dry before adding scintillation fluid and counting in a Topcount scintillation counter. Percentage specific bound and competition binding curves were calculated using S-Plus software (Insightful).
as §2
The values in the Table are pIC50 values and were determined in accordance with the procedure given above for determining D2 affinity.

Test [3] concerns the target T3, human cloned 5-HT2C receptor, expressed in CHO cells (Homo sapiens, UniProt P28335).
T3 construct: expressed in transfected cells; host or cells: CHO cells
T3 sequence (P28335 33-458): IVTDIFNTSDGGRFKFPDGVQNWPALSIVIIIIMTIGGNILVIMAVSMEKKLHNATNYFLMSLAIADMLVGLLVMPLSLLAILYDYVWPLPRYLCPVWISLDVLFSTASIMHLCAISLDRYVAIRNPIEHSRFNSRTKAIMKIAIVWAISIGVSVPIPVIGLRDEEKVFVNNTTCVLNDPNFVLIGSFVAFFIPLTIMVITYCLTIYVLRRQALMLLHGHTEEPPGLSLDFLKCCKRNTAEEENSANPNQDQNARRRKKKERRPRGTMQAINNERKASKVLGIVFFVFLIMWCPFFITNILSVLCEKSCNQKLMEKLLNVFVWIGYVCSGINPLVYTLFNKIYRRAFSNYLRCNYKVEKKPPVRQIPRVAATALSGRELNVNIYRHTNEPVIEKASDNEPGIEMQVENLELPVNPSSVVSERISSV
Briefly: In vitro radioligand binding affinity for 5-HT2C receptor ([3H]mesulergine). The protocol: as §1, §2

The mark [4] stands for this setting: human cloned receptor in L929 cells, [125I]R91150, read-out: 5-HT2A pIC50 (converted).
Where [5] appears, read: human D2L-transfected CHO cell membranes, [3H]Spiperone, read-out: D2L pIC50 (converted).
[6] abbreviates: human cloned receptor in CHO cells, [3H]mesulergine, read-out: 5-HT2C pIC50 (converted).
[7] abbreviates: Table 4, comparative data with prior art analogue.

The results in this text go back to patent US20080214572A1, “Selected Tetracyclic Tetrahydrofuran Derivatives Containing a Cyclic Amine Side Chain” (priority 2005, published 2008).

The structures appear in SMILES notation. Like-named read-outs stand apart in the source and are kept apart here.

T1 sequence (P28223 whole entry): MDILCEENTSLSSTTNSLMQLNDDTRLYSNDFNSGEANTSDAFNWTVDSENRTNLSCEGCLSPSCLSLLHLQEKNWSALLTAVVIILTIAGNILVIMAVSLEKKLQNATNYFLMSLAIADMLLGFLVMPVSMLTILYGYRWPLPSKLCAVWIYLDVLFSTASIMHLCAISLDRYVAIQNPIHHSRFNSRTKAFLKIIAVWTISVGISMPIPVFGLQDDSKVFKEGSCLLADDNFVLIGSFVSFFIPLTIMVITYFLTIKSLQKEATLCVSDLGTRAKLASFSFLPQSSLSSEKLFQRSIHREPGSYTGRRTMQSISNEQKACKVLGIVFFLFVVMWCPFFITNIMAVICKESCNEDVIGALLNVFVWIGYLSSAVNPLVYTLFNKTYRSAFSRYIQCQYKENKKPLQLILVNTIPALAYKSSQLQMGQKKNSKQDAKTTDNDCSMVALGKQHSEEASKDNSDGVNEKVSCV
T2 sequence (P14416 whole entry): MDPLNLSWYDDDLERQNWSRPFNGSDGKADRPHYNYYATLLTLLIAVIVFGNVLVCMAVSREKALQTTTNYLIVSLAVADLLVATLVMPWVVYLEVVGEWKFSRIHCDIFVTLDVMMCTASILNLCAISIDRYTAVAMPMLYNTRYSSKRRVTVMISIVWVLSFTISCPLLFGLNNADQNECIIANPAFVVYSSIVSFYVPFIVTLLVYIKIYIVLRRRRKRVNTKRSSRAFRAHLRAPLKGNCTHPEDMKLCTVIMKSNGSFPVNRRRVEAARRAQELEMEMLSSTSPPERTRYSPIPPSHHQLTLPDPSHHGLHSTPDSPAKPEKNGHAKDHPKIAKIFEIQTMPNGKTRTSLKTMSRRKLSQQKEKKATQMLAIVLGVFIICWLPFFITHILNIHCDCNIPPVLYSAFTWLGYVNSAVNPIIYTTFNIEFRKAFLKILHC

With `CC1CCCN1C[C@H]1C[C@@H]2c3ccccc3Cc3ccc(F)cc3[C@H]2O1` (mixture of isomers) [Compound 16], the figures for the IC50 in test [1] (setting [4]), in test [2] (setting [5]) and in test [3] (setting [6]) were 8.51 nM, 40.7 nM and 4.37 nM, respectively.
For `Fc1ccc2c(c1)C1OC(CN3CCCC3)CC1c1ccccc1C2` (stereo not drawn) [Compound 4], the results for the IC50 in test [1] (setting [4]), in test [2] (setting [5]) and in test [3] (setting [6]) were 4.68 nM, 24 nM and 5.25 nM, respectively.
`CC(=O)OCCN1CCN(C[C@H]2C[C@@H]3c4ccccc4Cc4ccc(F)cc4[C@H]3O2)CC1` [Compound 5]: the IC50 in test [1] (setting [4]) is 14.5 nM; in test [2] (setting [5]), 7.41 nM; in test [3] (setting [6]) it was 19.1 nM.
Turning to `Fc1ccc2c(c1)[C@H]1O[C@@H](CN3CCCCCC3)C[C@@H]1c1ccccc1C2` [Compound 10], the IC50 was 9.77 nM in test [1] (setting [4]), 16.2 nM in test [2] (setting [5]) and 3.09 nM in test [3] (setting [6]).
`CC1CCN(C[C@H]2C[C@@H]3c4ccccc4Cc4ccc(F)cc4[C@H]3O2)CC1` [Compound 12]: the IC50 is 3.89 nM in test [1] (setting [4]), 1.35 nM in test [2] (setting [5]) and 1 nM in test [3] (setting [6]).
For `Fc1ccc2c(c1)C1OC(CN3CCCCC3)CC1c1ccccc1C2` (stereo not drawn) [Compound 17], the IC50 in test [1] (setting [4]) was 1.91 nM; in test [2] (setting [5]), 5.89 nM; in test [3] (setting [6]), 1 nM.
With `CCOC(=O)N1CCN(C[C@H]2C[C@@H]3c4ccccc4Cc4ccc(F)cc4[C@H]3O2)CC1` [Compound 20], the IC50 was 4.27 nM in test [1] (setting [4]), 33.1 nM in test [2] (setting [5]) and 9.55 nM in test [3] (setting [6]).
As for `CC(C)C(=O)N1CCN(C[C@H]2C[C@@H]3c4ccccc4Cc4ccc(F)cc4[C@H]3O2)CC1` [Compound 22], the IC50 was 3.8 nM in test [1] (setting [4]), 34.7 nM in test [2] (setting [5]) and 39.8 nM in test [3] (setting [6]).
With `OC(CN1CCN(C[C@H]2C[C@@H]3c4ccccc4Cc4ccc(F)cc4[C@H]3O2)CC1)c1ccccc1` (stereo partly drawn) [Compound 27], the IC50 in test [1] (setting [4]) is 9.55 nM; in test [2] (setting [5]) it was 4.07 nM; in test [3] (setting [6]), 20.4 nM.
Regarding `OC(Cc1ccccc1)CN1CCN(CC2CC3c4ccccc4Cc4ccc(F)cc4C3O2)CC1` (stereo not drawn) [Compound 28], the values for the IC50 in test [1] (setting [4]), in test [2] (setting [5]) and in test [3] (setting [6]) were 4.79 nM, 4.57 nM and 10.7 nM, respectively. Moreover, the “h-D2L pIC50” value in test [2] (setting [7]) was found to be 8.34.
As to `CCCCC(O)CN1CCN(CC2CC3c4ccccc4Cc4ccc(F)cc4C3O2)CC1` (stereo not drawn) [Compound 29], the IC50 in test [1] (setting [4]) is 10 nM; in test [2] (setting [5]) it was 6.03 nM; in test [3] (setting [6]) it was 23.4 nM. In addition, the “h-D2L pIC50” value in test [2] (setting [7]) came to 8.22.
Take `COC(=O)N1CCN(C[C@H]2C[C@@H]3c4ccccc4Cc4ccc(F)cc4[C@H]3O2)CC1` [Compound 31]: the IC50 in test [1] (setting [4]) is 4.68 nM; in test [2] (setting [5]), 14.1 nM; in test [3] (setting [6]) it was 13.8 nM.
Consider `CC(C)OC(=O)N1CCN(C[C@H]2C[C@@H]3c4ccccc4Cc4ccc(F)cc4[C@H]3O2)CC1` [Compound 32], for which the IC50 in test [1] (setting [4]) was 5.13 nM; in test [2] (setting [5]), 22.9 nM; in test [3] (setting [6]), 32.4 nM.
The matching figures for `CCCCOC(=O)N1CCN(C[C@H]2C[C@@H]3c4ccccc4Cc4ccc(F)cc4[C@H]3O2)CC1` [Compound 33]: 11.7 nM, 17 nM and 38 nM.
Consider `CCOCCN1CCN(C[C@H]2C[C@@H]3c4ccccc4Cc4ccc(F)cc4[C@H]3O2)CC1` [Compound 34], for which the IC50 in test [1] (setting [4]) was 0.851 nM; in test [2] (setting [5]), 2.51 nM; in test [3] (setting [6]), 5.01 nM.
Regarding `COCCN1CCN(C[C@H]2C[C@@H]3c4ccccc4Cc4ccc(F)cc4[C@H]3O2)CC1` [Compound 35], the IC50 in test [1] (setting [4]) is 1.51 nM; in test [2] (setting [5]), 3.09 nM; in test [3] (setting [6]), 7.41 nM.
The matching figures for `CC(C)(C)OCCN1CCN(C[C@H]2C[C@@H]3c4ccccc4Cc4ccc(F)cc4[C@H]3O2)CC1` [Compound 36]: 0.955 nM, 3.72 nM and 5.5 nM.
As to `OCCN1CCN(C[C@H]2C[C@@H]3c4ccccc4Sc4ccc(F)cc4[C@H]3O2)CC1` [Compound 39], the IC50 in test [1] (setting [4]) was 0.692 nM; in test [2] (setting [5]), 2 nM; in test [3] (setting [6]), 6.92 nM.
In the case of `CC(C)CN1CCN(C[C@H]2C[C@@H]3c4ccccc4Cc4ccc(F)cc4[C@H]3O2)CC1` [Compound 40], the results for the IC50 in test [1] (setting [4]), in test [2] (setting [5]) and in test [3] (setting [6]) were 26.9 nM, 12.3 nM and 52.5 nM, respectively.
`Fc1ccc2c(c1)[C@H]1O[C@@H](CN3CCN(CC(c4ccccc4)c4ccccc4)CC3)C[C@@H]1c1ccccc1C2` [Compound 41]: the IC50 in test [1] (setting [4]) was 97.7 nM; in test [2] (setting [5]), 95.5 nM; in test [3] (setting [6]) it was 295 nM.
`Fc1ccc2c(c1)[C@H]1O[C@@H](CN3CCN(Cc4ccc(Cl)cc4)CC3)C[C@@H]1c1ccccc1C2` [Compound 42]: the results for the IC50 in test [1], in test [2] and in test [3] were 49 nM, 28.2 nM and 77.6 nM, respectively.
On to `Cc1ccccc1CN1CCN(C[C@H]2C[C@@H]3c4ccccc4Cc4ccc(F)cc4[C@H]3O2)CC1` [Compound 43], for which the results for the IC50 in test [1], in test [2] and in test [3] were 40.7 nM, 44.7 nM and 105 nM, respectively.
In the case of `Fc1ccc2c(c1)[C@H]1O[C@@H](CN3CCN(Cc4ccccc4)CC3)C[C@@H]1c1ccccc1C2` [Compound 45], the IC50 in test [1] is 18.6 nM; in test [2] it was 7.94 nM; in test [3] it was 45.7 nM.
Regarding `OC(CCN1CCN(C[C@H]2C[C@@H]3c4ccccc4Cc4ccc(F)cc4[C@H]3O2)CC1)c1ccc(F)cc1` (stereo partly drawn) [Compound 46], the IC50 is 5.13 nM in test [1] (setting [4]), 1.12 nM in test [2] (setting [5]) and 8.51 nM in test [3] (setting [6]).
Take `Fc1ccc(CN2CCN(C[C@H]3C[C@@H]4c5ccccc5Cc5ccc(F)cc5[C@H]4O3)CC2)cc1` [Compound 47]: the results for the IC50 in test [1], in test [2] and in test [3] were 30.9 nM, 9.12 nM and 129 nM, respectively.
Take `Fc1ccc2c(c1)[C@H]1O[C@@H](CN3CCN(Cc4ccc(C(F)(F)F)cc4)CC3)C[C@@H]1c1ccccc1C2` [Compound 48]: the results for the IC50 in test [1], in test [2] and in test [3] were 234 nM, 85.1 nM and 302 nM, respectively.
Turning to `OCCN1CCN(CC2CC3c4ccccc4Cc4ccc(F)cc4C3O2)CC1` (stereo not drawn) [Prior art compound 21from WO 99/19317, reference compound], in test [2] (Table 4, comparative data with prior art analogue, read-out: h-D2L pIC50 (converted)), the IC50 is 110 nM.
